Reference: US11655239B2 (SHANGHAI INSTITUTE OF MATERIAL MEDICA, CHINESE ACADEMY OF …, priority 2019, dated 2023)

Key:
[1] = test system: lung fibroblast cell line MRC-5; assay: Cytotoxic activity test (MTS), MRC-5; type: cell-based, human; conditions: 5 μM
Protocol: (§1) Experimental objective: The cytotoxic activity of compound S15 on bronchial epithelial cell line Beas-2B and lung fibroblast cell line MRC-5 was tested.
(§2) 1) The human bronchial epithelial cell line Beas-2B and the human embryonic lung fibroblast cell line MRC-5 were collected, and inoculated at a certain density (about 5000-10000 cells) on a 96-well plate (the edge wells were filled with sterile water or PBS). A control was set on each plate (100 μL of culture medium was added);
(§3) 2) The plate was incubated overnight at 37° C., 5% CO2. The plate was turned upside down and observed under the microscope.
(§4) 3) The solutions of different concentrations of the compounds to be tested were added to each well, and a control well (culture medium and MTS solution with cells but no drug) and a blank well (without cells, medium and MTS solution) were set, 3 to 5 repetition wells were set for each group. Incubation was performed at 37° C. for 48-72 hours.
(§5) 4) 10 μL/well of MTS/PMS (20:1, Promega Corp) solution was added to each well containing 100 μL of culture medium, and then the plate was gently shaken. The plate was incubated at 37° C. for 2 to 4 hours.
(§6) 5) M5 microplate reader (Molecular Device, USA) was used to measure the absorbance of the solution at 490 nm. […]

[2] = test system: bronchial epithelial cell line Beas-2B; assay: Cytotoxic activity test (MTS), Beas-2B; type: cell-based, human; conditions: 5 μM
Protocol: as §1, §2, §3, §4, §5, §6

[3] = test system: mouse model of BLM-induced lung injury; assay: Histopathological evaluation of lung sections, H&E staining; type: in vivo; conditions: mice
Protocol: Experimental objective: This group of experiments aimed to investigate the therapeutic potential of the compound S15 in acute lung injury and inflammation induced by bleomycin (BLM).
Experimental grouping (8 mice per group):
Model group (BLM): the mice received BLM (1.7 U/kg) via intratracheal instillation;
Compound S15 group (S15): this group was divided into three dose groups, namely 30, 60 and 90 mg/kg;
Positive control group (Nintedanib): Nintedanib administration group;
Negative control group (Control): only saline was used.
1) Material acquisition: The fresh tissue was fixed in 4% paraformaldehyde for more than 24 hours. The tissue was removed from the fixative solution and trim the tissue at the target site. The trimmed tissue was marked and placed in the dehydration box for later use.
2) Dehydration: The dehydration box was put in the dehydrator and different concentration gradients of ethanol was used sequentially for dehydration. 75% ethanol (4 hours), 85% ethanol (2 hours), 90% ethanol (2 hours), 95% ethanol (1 hour), absolute ethanol I (30 minutes), absolute ethanol II (30 minutes), alcohol benzene (5-10 minutes), xylene I (5-10 minutes), xylene II (5-10 minutes), wax I (1 hour), wax II (1 hour), wax III (1 hour).
3) Embedment: The wax melted at high temperature was put into the embedding frame; before the wax was cooled and solidified, the tissue was taken out of the dehydration box, put into the embedding frame according to the requirements of the embedding surface, marked and cooled at −20° C. After completely solidified, the wax block was removed from the embedding frame and trimmed.
4) Section: The trimmed wax block was put on a paraffin microtome for sectioning. The section thickness was about 4 μm. The sections were floated on warm water at 40° C. of the flotation workstation and flatten. A glass slide was used to lift the tissue from the warm water, and put into a 60° C. oven for dryness. After the water was dried and the wax melted, the glass slide was taken out and stored at ambient temperature for later use. […]

[4] = biological target: IGF-1R (Homo sapiens (Human), UniProt P08069); assay: Enzyme selectivity test (ELISA), IGF-1R; type: biochemical
Protocol: (§7) 1) Enzyme reaction substrate Poly(Glu, Tyr) 4:1 was diluted to 20 μg/mL with potassium-free PBS (10 mM sodium phosphate buffer, 150 mM NaCl, pH 7.2-7.4), and the microtiter plate was coated with 125 μL/well and placed at 37° C. for 12-16 hours of reaction. The liquid in the well was discard. The plate was washed three times with T-PBS (potassium-free PBS containing 0.1% Tween-20, 200 μL/well), 5 minutes each time. The ELISA plate was dried in an oven at 37° C. for 1 to 2 hours.
(§8) 2) Reaction buffer (50 mM HEPES pH 7.4, 50 mM MgCl2, 0.5 mM MnCl2, 0.2 mM Na3VO4, 1 mM DTT) diluted ATP solution (49 μL) was added to each well, 1 μL of the compound to be tested was added to each well, and then 50 μL of DDR2 kinase domain recombinant protein diluted in the reaction buffer was added to start the reaction. Two control wells without ATP were set in each experiment. The plate placed on a shaker (100 rpm) at 37° C. for 1 hour of reaction. The liquid in the well was discarded and the plate was washed three times with T-PBS.
(§9) 3) Antibody PY99 dilution solution (the antibody was diluted 1:500 with T-PBS containing BSA 5 mg/mL) was added at 100 μL/well, and shaken on a shaker at 37° C. for 0.5 hour of reaction. The liquid in the well was discarded and the plate was washed three times with T-PBS.
(§10) 4) Horseradish peroxidase labeled goat anti-murine secondary antibody dilution solution (the antibody is diluted 1:2000 with T-PBS containing BSA 5 mg/ml) was added at 100 μL/well, and shaken on a shaker at 37° C. for 0.5 hour of reaction. The liquid in the well was discarded and the plate was washed three times with T-PBS.
(§11) 5) 2 mg/ml of OPD color developing solution [diluted with 0.1 M citric acid-sodium citrate buffer (pH=5.4) containing 0.03% H2O2] was added at 100 μL/well and reacted for 1 to 10 minutes at 25° C. in the dark.
(§12) 6) 2M H2SO4 was added at 50 μL/well to stop the reaction, and a tunable wavelength microplate reader VERSAmax was used for reading at a wavelength of 490 nm.
(§13) The IC50 value was obtained by four-parameter regression using the software that came with the microplate reader. […]

[5] = biological target: EPH-A2 (Homo sapiens (Human), UniProt P29317); assay: Enzyme selectivity test (ELISA), EPH-A2; type: biochemical
Protocol: as §7, §8, §9, §10, §11, §12, §13

[6] = biological target: FGFR-4 (Homo sapiens (Human), UniProt P22455); assay: Enzyme selectivity test (ELISA), FGFR-4; type: biochemical
Protocol: as §7
as §8, with “T-PBS. […]” for “T-PBS.”
as §12, §13

[7] = biological target: ALK (Homo sapiens (Human), UniProt Q9UM73); assay: Enzyme selectivity test (ELISA), ALK; type: biochemical
Protocol: as §7, §8, §9, §10, §11, §12, §13

[8] = biological target: FGFR-1 (Homo sapiens (Human), UniProt P11362); assay: Enzyme selectivity test (ELISA), FGFR-1; type: biochemical
Protocol: as §7, §8, §9, §10, §11, §12, §13

[9] = biological target: FGFR-2 (Homo sapiens (Human), UniProt P21802); assay: Enzyme selectivity test (ELISA), FGFR-2; type: biochemical
FGFR-2, sequence (P21802 22-821, species assumed): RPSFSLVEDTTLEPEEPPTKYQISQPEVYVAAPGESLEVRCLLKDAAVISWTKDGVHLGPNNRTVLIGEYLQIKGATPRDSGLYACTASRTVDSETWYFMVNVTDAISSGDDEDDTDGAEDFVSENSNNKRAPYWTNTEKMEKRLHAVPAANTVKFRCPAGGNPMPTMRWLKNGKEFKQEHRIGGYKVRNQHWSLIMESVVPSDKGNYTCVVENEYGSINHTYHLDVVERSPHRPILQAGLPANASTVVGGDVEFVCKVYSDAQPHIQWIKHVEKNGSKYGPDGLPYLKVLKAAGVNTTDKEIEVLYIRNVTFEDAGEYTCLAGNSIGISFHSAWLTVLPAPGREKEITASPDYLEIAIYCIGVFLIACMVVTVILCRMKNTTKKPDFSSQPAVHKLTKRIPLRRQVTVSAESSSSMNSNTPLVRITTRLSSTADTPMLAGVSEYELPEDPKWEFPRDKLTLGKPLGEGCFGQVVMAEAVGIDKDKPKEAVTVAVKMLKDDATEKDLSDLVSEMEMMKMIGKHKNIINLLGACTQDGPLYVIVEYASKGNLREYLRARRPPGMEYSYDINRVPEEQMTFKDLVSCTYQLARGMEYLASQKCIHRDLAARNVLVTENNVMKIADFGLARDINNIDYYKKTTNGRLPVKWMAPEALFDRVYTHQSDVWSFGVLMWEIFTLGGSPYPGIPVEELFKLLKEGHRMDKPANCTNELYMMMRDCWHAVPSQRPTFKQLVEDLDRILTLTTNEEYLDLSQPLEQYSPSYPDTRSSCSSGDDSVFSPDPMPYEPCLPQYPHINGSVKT
Protocol: as §7
as §8, with “T-PBS. […]” for “T-PBS.”
as §12, §13

[10] = biological target: Flt-3 (Homo sapiens (Human), UniProt P36888); assay: Enzyme selectivity test (ELISA), Flt-3; type: biochemical
Flt-3, sequence (P36888 27-993, species assumed): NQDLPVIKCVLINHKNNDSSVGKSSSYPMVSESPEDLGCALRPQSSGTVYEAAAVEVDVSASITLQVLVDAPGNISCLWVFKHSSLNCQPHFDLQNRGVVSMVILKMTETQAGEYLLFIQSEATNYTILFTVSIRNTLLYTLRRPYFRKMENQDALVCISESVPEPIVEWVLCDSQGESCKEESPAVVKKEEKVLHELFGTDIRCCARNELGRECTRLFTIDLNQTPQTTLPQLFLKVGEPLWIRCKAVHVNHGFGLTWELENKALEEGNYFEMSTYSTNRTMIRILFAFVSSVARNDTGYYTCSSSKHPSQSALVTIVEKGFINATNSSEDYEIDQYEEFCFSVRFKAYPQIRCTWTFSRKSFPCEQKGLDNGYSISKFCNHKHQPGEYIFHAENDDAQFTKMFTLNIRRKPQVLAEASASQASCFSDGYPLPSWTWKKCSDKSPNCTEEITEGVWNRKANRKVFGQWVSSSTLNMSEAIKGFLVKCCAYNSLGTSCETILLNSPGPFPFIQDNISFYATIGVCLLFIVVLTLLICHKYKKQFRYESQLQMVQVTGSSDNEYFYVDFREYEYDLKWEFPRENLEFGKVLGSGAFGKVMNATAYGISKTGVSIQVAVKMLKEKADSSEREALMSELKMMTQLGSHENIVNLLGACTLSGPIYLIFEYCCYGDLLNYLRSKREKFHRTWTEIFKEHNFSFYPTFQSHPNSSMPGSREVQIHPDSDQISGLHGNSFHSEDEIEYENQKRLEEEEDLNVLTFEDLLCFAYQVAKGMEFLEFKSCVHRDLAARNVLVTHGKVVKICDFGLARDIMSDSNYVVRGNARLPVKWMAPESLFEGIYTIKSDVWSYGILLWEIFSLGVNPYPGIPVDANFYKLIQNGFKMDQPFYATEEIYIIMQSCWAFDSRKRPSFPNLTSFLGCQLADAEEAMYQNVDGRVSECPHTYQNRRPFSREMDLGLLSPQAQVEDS
Protocol: as §7, §8, §9, §10, §11, §12, §13

[11] = biological target: RET (Homo sapiens (Human), UniProt P07949); assay: Enzyme selectivity test (ELISA), RET; type: biochemical
RET, sequence (P07949 29-1114, species assumed): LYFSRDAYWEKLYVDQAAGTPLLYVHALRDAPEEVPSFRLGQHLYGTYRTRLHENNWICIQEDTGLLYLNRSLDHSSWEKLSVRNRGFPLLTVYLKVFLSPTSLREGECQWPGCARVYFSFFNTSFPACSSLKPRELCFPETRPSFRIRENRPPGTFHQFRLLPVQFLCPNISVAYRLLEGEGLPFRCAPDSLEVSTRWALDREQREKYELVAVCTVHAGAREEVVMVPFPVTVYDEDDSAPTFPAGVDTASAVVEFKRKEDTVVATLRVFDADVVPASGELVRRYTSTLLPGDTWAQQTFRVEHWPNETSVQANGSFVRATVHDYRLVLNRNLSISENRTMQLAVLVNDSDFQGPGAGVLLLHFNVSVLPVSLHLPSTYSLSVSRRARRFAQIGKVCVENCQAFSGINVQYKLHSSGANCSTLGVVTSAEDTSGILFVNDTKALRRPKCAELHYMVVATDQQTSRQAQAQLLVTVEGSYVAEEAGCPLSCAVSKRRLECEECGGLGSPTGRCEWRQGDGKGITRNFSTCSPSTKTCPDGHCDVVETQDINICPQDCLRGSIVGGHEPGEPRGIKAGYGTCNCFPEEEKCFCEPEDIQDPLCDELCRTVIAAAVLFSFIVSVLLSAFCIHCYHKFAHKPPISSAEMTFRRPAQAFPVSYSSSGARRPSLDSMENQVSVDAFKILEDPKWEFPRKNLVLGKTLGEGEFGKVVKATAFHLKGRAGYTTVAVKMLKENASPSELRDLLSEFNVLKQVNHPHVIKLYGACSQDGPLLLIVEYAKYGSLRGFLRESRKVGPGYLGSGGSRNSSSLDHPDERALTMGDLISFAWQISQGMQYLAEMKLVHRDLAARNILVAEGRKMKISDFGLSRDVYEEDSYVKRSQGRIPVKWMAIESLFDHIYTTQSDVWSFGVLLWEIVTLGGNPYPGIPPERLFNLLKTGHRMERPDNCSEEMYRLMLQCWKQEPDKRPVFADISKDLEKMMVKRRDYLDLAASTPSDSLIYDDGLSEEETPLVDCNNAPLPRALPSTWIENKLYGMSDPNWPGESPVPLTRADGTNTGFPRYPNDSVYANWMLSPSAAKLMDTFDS
Protocol: as §7, §8, §9, §10, §11, §12, §13

[12] = biological target: ErbB2 (Homo sapiens (Human), UniProt P04626); assay: Enzyme selectivity test (ELISA), ErbB2; type: biochemical
Protocol: as §7, §8, §9, §10, §11, §12, §13

[13] = biological target: C-Kit (Homo sapiens (Human), UniProt P10721); assay: Enzyme selectivity test (ELISA), C-Kit; type: biochemical
Protocol: as §7, §8, §9, §10, §11, §12, §13

[14] = biological target: DDR2 (Homo sapiens (Human), UniProt Q16832); assay: DDR2 enzyme activity test (ELISA); type: biochemical; conditions: read-out: DDR2 IC50
Protocol: The optical rotation and the inhibitory activity against DDR2 enzyme of the compounds S11-A and S11-B obtained by the resolution in Example 12, and the chirally synthesized compounds S11-A′ and S11-B′ in Example 13 were tested (referred to the operation in Effect example 1), and the results are shown in Table 3 below:
Detection method: Enzyme-linked immunosorbent assay (ELISA)
Test receptor tyrosine kinase: DDR2
The kinase used in the experiment was obtained by our laboratory using the insect baculovirus expression system to express and purify the recombinant protein containing the protein kinase region; polyglutamic acid-tyrosine peptide segment [Poly(Glu, Tyr) 4:1] and sodium vanadate were purchased from Sigma; the anti-phosphorylated monoclonal antibody PY99 was purchased from Santa Cruz; horseradish peroxidase labeled goat anti-murine secondary antibody was purchased from Calbiochem; ATP and OPD were purchased from Sangon Biotech (Shanghai) Co., Ltd.; the remaining reagents were purchased from Sinopharm Chemical Reagent Co., Ltd. The reaction ELISA plate (#2592) was purchased from Corning. The full-wavelength microplate reader for experiment reading was a product of Molecular Device, model: SpectraMax 190; the experimental water was distilled water produced by Sinopharm Group.
The compound was centrifuged at 12,000 g for 5 min, and DMSO was added to prepare a 10^-2M stock solution, which was vortexed evenly, then sonicated for 10 min and stored at −40° C. for later use. During the test, the compound was diluted with DMSO from the stock solution to 100 times the test concentration (the DMSO concentration in the system was 1%).
as §7, §8, §9, §10, §11, §12
The IC50 value was obtained by four-parameter regression using the software that came with the microplate reader.

[15] = biological target: PDGFR-β (Homo sapiens (Human), UniProt P09619); assay: Enzyme selectivity test (ELISA), PDGFR-β; type: biochemical
Protocol: as §7, §8, §9, §10, §11, §12, §13

[16] = biological target: ErbB4 (Homo sapiens (Human), UniProt Q15303); assay: Enzyme selectivity test (ELISA), ErbB4; type: biochemical
Protocol: as §7, §8, §9, §10, §11, §12, §13

[17] = biological target: Abl (Homo sapiens (Human), UniProt P00519); assay: Enzyme selectivity test (ELISA), Abl; type: biochemical
Protocol: as §7, §8, §9, §10, §11, §12, §13

[18] = biological target: VEGFR-1 (Homo sapiens (Human), UniProt P17948); assay: Enzyme selectivity test (ELISA), VEGFR-1; type: biochemical
Protocol: as §7, §8, §9, §10, §11, §12, §13

[19] = biological target: Met (Homo sapiens (Human), UniProt P08581); assay: Enzyme selectivity test (ELISA), Met; type: biochemical
Protocol: as §7, §8, §9, §10, §11, §12, §13

[20] = biological target: Src (Homo sapiens (Human), UniProt P12931); assay: Enzyme selectivity test (ELISA), Src; type: biochemical
Protocol: as §7, §8, §9, §10, §11, §12, §13

[21] = biological target: EGFR (Homo sapiens (Human), UniProt P00533); assay: Enzyme selectivity test (ELISA), EGFR; type: biochemical
EGFR, sequence (P00533 25-1210, species assumed): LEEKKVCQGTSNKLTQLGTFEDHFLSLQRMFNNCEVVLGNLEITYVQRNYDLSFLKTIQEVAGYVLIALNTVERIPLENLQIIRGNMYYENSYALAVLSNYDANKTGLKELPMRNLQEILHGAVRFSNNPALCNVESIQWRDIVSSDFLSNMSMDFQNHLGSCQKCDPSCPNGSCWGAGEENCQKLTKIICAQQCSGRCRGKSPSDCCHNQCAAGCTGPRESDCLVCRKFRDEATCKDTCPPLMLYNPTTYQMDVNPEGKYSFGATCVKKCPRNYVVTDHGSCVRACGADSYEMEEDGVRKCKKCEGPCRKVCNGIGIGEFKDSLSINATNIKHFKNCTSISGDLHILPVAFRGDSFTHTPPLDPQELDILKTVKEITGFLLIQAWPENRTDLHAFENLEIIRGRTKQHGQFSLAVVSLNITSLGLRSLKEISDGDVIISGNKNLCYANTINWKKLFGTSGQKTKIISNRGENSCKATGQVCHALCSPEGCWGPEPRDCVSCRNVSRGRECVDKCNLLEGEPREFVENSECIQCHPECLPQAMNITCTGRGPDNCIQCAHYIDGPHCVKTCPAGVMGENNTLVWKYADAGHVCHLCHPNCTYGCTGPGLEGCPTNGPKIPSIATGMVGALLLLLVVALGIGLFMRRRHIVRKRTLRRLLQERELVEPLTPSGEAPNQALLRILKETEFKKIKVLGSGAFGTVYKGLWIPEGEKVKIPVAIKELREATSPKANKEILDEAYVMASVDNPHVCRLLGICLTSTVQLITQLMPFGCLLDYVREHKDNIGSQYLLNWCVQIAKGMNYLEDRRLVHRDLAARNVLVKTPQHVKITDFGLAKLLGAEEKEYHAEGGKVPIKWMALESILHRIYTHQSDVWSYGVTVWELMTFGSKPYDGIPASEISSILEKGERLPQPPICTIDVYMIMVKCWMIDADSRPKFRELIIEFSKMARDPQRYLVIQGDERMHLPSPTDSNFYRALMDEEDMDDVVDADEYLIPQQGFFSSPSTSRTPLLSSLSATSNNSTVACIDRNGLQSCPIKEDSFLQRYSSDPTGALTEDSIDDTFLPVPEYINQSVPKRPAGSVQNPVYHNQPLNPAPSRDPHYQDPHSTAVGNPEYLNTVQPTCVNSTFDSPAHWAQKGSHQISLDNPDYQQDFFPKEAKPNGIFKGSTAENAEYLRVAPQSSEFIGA
Protocol: as §7, §8, §9, §10, §11, §12, §13

[22] = biological target: FGFR-3 (Homo sapiens (Human), UniProt P22607); assay: Enzyme selectivity test (ELISA), FGFR-3; type: biochemical
Protocol: as §7
as §8, with “T-PBS. […]” for “T-PBS.”
as §12, §13

[23] = biological target: AXL (Homo sapiens (Human), UniProt P30530); assay: Enzyme selectivity test (ELISA), AXL; type: biochemical
Protocol: as §7, §8, §9, §10, §11, §12, §13

[24] = test system: kinases; assay: Enzyme selectivity test, kinase panel overall; type: biochemical; conditions: kinase panel of Table 5
Text: Except that the enzyme was different, other test methods and conditions were the same as the DDR2 enzyme activity test method in Effect example 1.

[25] = biological target: KDR (Homo sapiens (Human), UniProt P35968); assay: Enzyme selectivity test (ELISA), KDR; type: biochemical
Protocol: as §7, §8, §9, §10, §11, §12, §13

[26] = biological target: PDGFR-α (Homo sapiens (Human), UniProt P16234); assay: Enzyme selectivity test (ELISA), PDGFR-α; type: biochemical
PDGFR-α, sequence (P16234 24-1089, species assumed): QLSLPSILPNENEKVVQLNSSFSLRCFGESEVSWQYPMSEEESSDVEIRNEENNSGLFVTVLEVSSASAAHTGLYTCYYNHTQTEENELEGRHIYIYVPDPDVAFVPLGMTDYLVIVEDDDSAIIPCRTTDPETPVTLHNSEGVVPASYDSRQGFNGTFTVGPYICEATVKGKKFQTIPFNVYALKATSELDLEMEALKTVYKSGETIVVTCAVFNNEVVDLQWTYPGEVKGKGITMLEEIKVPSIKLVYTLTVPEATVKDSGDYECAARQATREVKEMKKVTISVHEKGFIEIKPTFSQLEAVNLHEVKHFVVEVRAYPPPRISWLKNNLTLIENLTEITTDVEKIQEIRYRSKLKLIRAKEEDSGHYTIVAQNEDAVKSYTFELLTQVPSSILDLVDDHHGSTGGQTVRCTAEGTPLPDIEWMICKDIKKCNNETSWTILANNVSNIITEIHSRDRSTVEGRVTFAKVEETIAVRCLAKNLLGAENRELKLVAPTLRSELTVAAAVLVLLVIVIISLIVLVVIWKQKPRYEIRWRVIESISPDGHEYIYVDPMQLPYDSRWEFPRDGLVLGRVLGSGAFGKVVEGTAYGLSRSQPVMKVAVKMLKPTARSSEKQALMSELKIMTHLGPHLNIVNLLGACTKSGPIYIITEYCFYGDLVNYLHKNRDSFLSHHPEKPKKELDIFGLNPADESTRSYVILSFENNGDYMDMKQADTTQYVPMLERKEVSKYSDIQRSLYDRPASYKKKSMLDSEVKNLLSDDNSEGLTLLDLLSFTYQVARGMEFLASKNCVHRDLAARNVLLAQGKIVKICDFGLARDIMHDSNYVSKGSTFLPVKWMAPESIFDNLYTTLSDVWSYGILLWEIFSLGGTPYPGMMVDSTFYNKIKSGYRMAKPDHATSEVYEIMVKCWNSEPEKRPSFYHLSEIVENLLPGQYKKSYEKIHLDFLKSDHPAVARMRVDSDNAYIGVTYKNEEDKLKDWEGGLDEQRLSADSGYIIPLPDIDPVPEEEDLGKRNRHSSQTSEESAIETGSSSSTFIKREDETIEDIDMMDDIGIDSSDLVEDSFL
Protocol: as §7, §8, §9, §10, §11, §12, §13

## COC(=O)c1ccc2c(c1)NC(=O)/C2=C(\Nc1ccc(N(C)C(=O)CN2CCN(C)CC2)cc1)c1ccccc1 [Nintedanib]
[1]
  cytotoxic activity on MRC-5: significant cytotoxicity
[2]
  cytotoxic activity on Beas-2B: significant cytotoxicity
[3]; Effect example 4, S15 30, 60, 90 mg/kg, Nintedanib 30 mg/kg, oral qd 12 days
  BLM-induced lung injury, H&E staining: improved significantly
[3]; Effect example 7, 30 mg/kg oral qd 12 days
  BLM-induced lung injury, H&E staining: significantly improved

## CC(NC(=O)c1ccc(C2CC2)c(-c2ccc3nc(Nc4cnn(C5CC5)c4)ncc3c2)c1)c1cccc(C(F)(F)F)c1 (stereo not drawn) [Compound S16, 4-cyclopropyl-3-(2-((1-cyclopropyl-1H-pyrazol-4-yl)amino)quinazolin-6-yl)-N-(1-(3-(trifluoromethyl)phenyl)ethyl)benzamide]
[4]
  IC50: > 1 µM
[5]
  IC50: > 1 µM
[6]
  IC50: > 1 µM
[7]
  IC50: > 1 µM
[8]
  IC50: > 1 µM
[9]
  IC50: > 1 µM
[10]
  IC50: > 1 µM
[11]
  IC50: > 1 µM
[12]
  IC50: > 1 µM
[13]
  IC50: > 1 µM
[14]
  IC50: 0.0383 ± 0.0028 µM
[15]
  IC50: > 1 µM
[16]
  IC50: > 1 µM
[17]
  IC50: > 1 µM
[18]
  IC50: > 1 µM
[19]
  IC50: > 1 µM
[20]
  IC50: > 1 µM
[21]
  IC50: > 1 µM
[22]
  IC50: > 1 µM
[23]
  IC50: > 1 µM
[24]
  selectivity for kinases: good selectivity
[25]
  IC50: > 1 µM
[26]
  IC50: > 1 µM
